We go through seven compounds from PubChem BioAssay AID1259407 (Chemical Carcinogenesis Research Information System (CCRIS), 2018).

Calls of active or inactive are those of the source. No rule for the calls is given here.

This data set has as its system CCRIS mutagenicity, Ames/micronucleus/aberration tests. Put plainly: CCRIS mutagenicity studies.
The mark [1] stands for this setting: Test System: AMES SALMONELLA TYPHIMURIUM, Strain/Indicator: TA98, Metabolic Activation: HAMSTER, LIVER, S-9, AROCLOR 1254 (30%), Method: PREINCUBATION
Setting [2] is: Test System: AMES SALMONELLA TYPHIMURIUM, Strain/Indicator: TA98, Metabolic Activation: NONE, Method: PREINCUBATION
[3] abbreviates: Test System: AMES SALMONELLA TYPHIMURIUM, Strain/Indicator: TA98, Metabolic Activation: RAT, LIVER, S-9, AROCLOR 1254 (30%), Method: PREINCUBATION
Setting [4] is: Test System: AMES SALMONELLA TYPHIMURIUM, Strain/Indicator: TA100, Metabolic Activation: HAMSTER, LIVER, S-9, AROCLOR 1254 (30%), Method: PREINCUBATION
Where [5] appears, read: Test System: AMES SALMONELLA TYPHIMURIUM, Strain/Indicator: TA100, Metabolic Activation: NONE, Method: PREINCUBATION
Where [6] appears, read: Test System: AMES SALMONELLA TYPHIMURIUM, Strain/Indicator: TA100, Metabolic Activation: RAT, LIVER, S-9, AROCLOR 1254 (30%), Method: PREINCUBATION

As to `Clc1ccc(C(Cl)(Cl)Cl)c(Cl)c1`, the mutagenic call was “active; positive” under setting [1]; “inactive; negative” under setting [2]; “active; positive” under setting [3]; “active; positive” under setting [4]; “inactive; negative” under setting [5]; “active; positive” under setting [6].
Turning to `C[C@H]1CCC/C=C/[C@@H]2C[C@H](O)C[C@H]2[C@H](O)/C=C/C(=O)O1`, the mutagenic call by setting is: (Test System: Mouse lymphoma, Strain/Indicator: L5178Y (tk+/tk-), Metabolic Activation: None, Method: Suspension/plate) “inactive; negative”; (Test System: Mouse lymphoma, Strain/Indicator: L5178Y (tk+/tk-), Metabolic Activation: Rat, Liver, S-9, Aroclor 1254, Method: Suspension/plate) “equivocal”.
Turning to `O=[N+]([O-])c1ccccc1CCO`, the mutagenic call is, setting by setting: (Test System: AMES SALMONELLA TYPHIMURIUM, Strain/Indicator: TA98, Metabolic Activation: HAMSTER, LIVER, S-9, AROCLOR 1254 (10%), Method: PREINCUBATION) “inactive; negative”; under setting [1], “inactive; negative”; under setting [2], “inactive; negative”; (Test System: AMES SALMONELLA TYPHIMURIUM, Strain/Indicator: TA98, Metabolic Activation: RAT, LIVER, S-9, AROCLOR 1254 (10%), Method: PREINCUBATION) “inactive; negative”; under setting [3], “inactive; negative”; (Test System: AMES SALMONELLA TYPHIMURIUM, Strain/Indicator: TA100, Metabolic Activation: HAMSTER, LIVER, S-9, AROCLOR 1254 (10%), Method: PREINCUBATION) “inactive; negative”. In addition, the mutagenic call by setting is: under setting [4], “active; positive”; under setting [5], “inactive; negative”; (Test System: AMES SALMONELLA TYPHIMURIUM, Strain/Indicator: TA100, Metabolic Activation: RAT, LIVER, S-9, AROCLOR 1254 (5%), Method: PREINCUBATION) “inactive; negative”; (Test System: AMES SALMONELLA TYPHIMURIUM, Strain/Indicator: TA100, Metabolic Activation: RAT, LIVER, S-9, AROCLOR 1254 (10%), Method: PREINCUBATION) “inactive; negative”; under setting [6], “inactive; negative”; (Test System: AMES SALMONELLA TYPHIMURIUM, Strain/Indicator: TA1535, Metabolic Activation: HAMSTER, LIVER, S-9, AROCLOR 1254 (10%), Method: PREINCUBATION) “inactive; negative”. In addition, the mutagenic call is, setting by setting: (Test System: AMES SALMONELLA TYPHIMURIUM, Strain/Indicator: TA1535, Metabolic Activation: NONE, Method: PREINCUBATION) “inactive; negative”; (Test System: AMES SALMONELLA TYPHIMURIUM, Strain/Indicator: TA1535, Metabolic Activation: RAT, LIVER, S-9, AROCLOR 1254 (10%), Method: PREINCUBATION) “inactive; negative”; (Test System: AMES SALMONELLA TYPHIMURIUM, Strain/Indicator: TA1537, Metabolic Activation: HAMSTER, LIVER, S-9, AROCLOR 1254 (10%), Method: PREINCUBATION) “inactive; negative”; (Test System: AMES SALMONELLA TYPHIMURIUM, Strain/Indicator: TA1537, Metabolic Activation: NONE, Method: PREINCUBATION) “inactive; negative”; (Test System: AMES SALMONELLA TYPHIMURIUM, Strain/Indicator: TA1537, Metabolic Activation: RAT, LIVER, S-9, AROCLOR 1254 (10%), Method: PREINCUBATION) “inactive; negative”.
Regarding `C#CC(OC(=O)C1C(C=C(C)C)C1(C)C)/C(C)=C/CC` (stereo not drawn), the mutagenic call is “inactive; negative” (Test System: AMES SALMONELLA TYPHIMURIUM, Strain/Indicator: TA98, Metabolic Activation: NONE, Method: MICROSUSPENSION); “inactive; negative” (Test System: AMES SALMONELLA TYPHIMURIUM, Strain/Indicator: TA98, Metabolic Activation: S-9, Method: MICROSUSPENSION); “inactive; negative” (Test System: AMES SALMONELLA TYPHIMURIUM, Strain/Indicator: TA100, Metabolic Activation: NONE, Method: MICROSUSPENSION); “inactive; negative” (Test System: AMES SALMONELLA TYPHIMURIUM, Strain/Indicator: TA100, Metabolic Activation: S-9, Method: MICROSUSPENSION).
For the compound `CCCCCCOCCOCCO`, the mutagenic call was “inactive; negative” (Test System: AMES SALMONELLA TYPHIMURIUM, Strain/Indicator: TA98, Metabolic Activation: NONE, Method: STANDARD PLATE); “inactive; negative” (Test System: AMES SALMONELLA TYPHIMURIUM, Strain/Indicator: TA98, Metabolic Activation: RAT LIVER S-9, AROCLOR 1254, Method: STANDARD PLATE); “inactive; negative” (Test System: AMES SALMONELLA TYPHIMURIUM, Strain/Indicator: TA100, Metabolic Activation: NONE, Method: STANDARD PLATE); “inactive; negative” (Test System: AMES SALMONELLA TYPHIMURIUM, Strain/Indicator: TA100, Metabolic Activation: RAT LIVER S-9, AROCLOR 1254, Method: STANDARD PLATE); “inactive; negative” (Test System: AMES SALMONELLA TYPHIMURIUM, Strain/Indicator: TA1535, Metabolic Activation: NONE, Method: STANDARD PLATE); “inactive; negative” (Test System: AMES SALMONELLA TYPHIMURIUM, Strain/Indicator: TA1535, Metabolic Activation: RAT LIVER S-9, AROCLOR 1254, Method: STANDARD PLATE). In addition, the mutagenic call reads like this: (Test System: AMES SALMONELLA TYPHIMURIUM, Strain/Indicator: TA1537, Metabolic Activation: NONE, Method: STANDARD PLATE) “inactive; negative”; (Test System: AMES SALMONELLA TYPHIMURIUM, Strain/Indicator: TA1537, Metabolic Activation: RAT LIVER S-9, AROCLOR 1254, Method: STANDARD PLATE) “inactive; negative”; (Test System: AMES SALMONELLA TYPHIMURIUM, Strain/Indicator: TA1538, Metabolic Activation: NONE, Method: STANDARD PLATE) “inactive; negative”; (Test System: AMES SALMONELLA TYPHIMURIUM, Strain/Indicator: TA1538, Metabolic Activation: RAT LIVER S-9, AROCLOR 1254, Method: STANDARD PLATE) “inactive; negative”; (Test System: CHINESE HAMSTER OVARY CELLS, Strain/Indicator: CHO-K1-BH4 CELLS (HPRT)/6-THIOGUANINE, Metabolic Activation: RAT LIVER S-9, AROCLOR 1254, Method: PREINCUBATION) “active; positive”.
Take `CC(Br)(CBr)CBr`: the mutagenic call reads like this: (Test System: AMES SALMONELLA TYPHIMURIUM, Strain/Indicator: TA98, Metabolic Activation: NONE, Method: FLASK ASSAY) “inactive; negative”; (Test System: AMES SALMONELLA TYPHIMURIUM, Strain/Indicator: TA98, Metabolic Activation: RAT, LIVER, S-9, AROCLOR 1254, Method: FLASK ASSAY) “inactive; negative”; (Test System: AMES SALMONELLA TYPHIMURIUM, Strain/Indicator: TA100, Metabolic Activation: NONE, Method: FLASK ASSAY) “inactive; negative”; (Test System: AMES SALMONELLA TYPHIMURIUM, Strain/Indicator: TA100, Metabolic Activation: RAT, LIVER, S-9, AROCLOR 1254, Method: FLASK ASSAY) “inactive; negative”; (Test System: AMES SALMONELLA TYPHIMURIUM, Strain/Indicator: TA1535, Metabolic Activation: NONE, Method: FLASK ASSAY) “inactive; negative”; (Test System: AMES SALMONELLA TYPHIMURIUM, Strain/Indicator: TA1535, Metabolic Activation: RAT, LIVER, S-9, AROCLOR 1254, Method: FLASK ASSAY) “inactive; negative”. The mutagenic call (Test System: AMES SALMONELLA TYPHIMURIUM, Strain/Indicator: TA1537, Metabolic Activation: NONE, Method: FLASK ASSAY) is “inactive; negative”; the mutagenic call (Test System: AMES SALMONELLA TYPHIMURIUM, Strain/Indicator: TA1537, Metabolic Activation: RAT, LIVER, S-9, AROCLOR 1254, Method: FLASK ASSAY) was “inactive; negative”; the mutagenic call (Test System: AMES SALMONELLA TYPHIMURIUM, Strain/Indicator: TA1538, Metabolic Activation: NONE, Method: FLASK ASSAY) is “inactive; negative”; the mutagenic call (Test System: AMES SALMONELLA TYPHIMURIUM, Strain/Indicator: TA1538, Metabolic Activation: RAT, LIVER, S-9, AROCLOR 1254, Method: FLASK ASSAY) was “inactive; negative”; the mutagenic call (Test System: MOUSE LYMPHOMA, Strain/Indicator: L5178Y (TK+/TK-), Metabolic Activation: NONE, Method: SUSPENSION/PLATE) is “active; positive”; the mutagenic call (Test System: MOUSE LYMPHOMA, Strain/Indicator: L5178Y (TK+/TK-), Metabolic Activation: RAT, LIVER, S-9, AROCLOR 1254, Method: SUSPENSION/PLATE) was “active; positive”.
As for `Cc1cc2c(O)cccc2c2cc3ccccc3cc12`, the mutagenic call (Test System: AMES SALMONELLA TYPHIMURIUM, Strain/Indicator: TA100, Metabolic Activation: RAT, LIVER, S-9, AROCLOR 1254, Method: PREINCUBATION) is “active; positive”.
